This experiment concerns 786-0 complex spheroids with HUVEC/MSC, growth % test/control. Kind of experiment: Anticancer human tumor 786-0 cell line growth inhibition [AhR].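 For all read-outs here: compound exposure lasted seven days before the read-out.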 The conditions noted are these: for viability, T/C: stronger effect = lower value. Summed up: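 Agents were dosed in half-log steps down from roughly clinical Cmax, or from 10 microM where Cmax was unknown, alone and with AhR antagonists. Read-out: percent test/control growth of tumor spheroids containing HUVEC and MSC stromal cells.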

[1] abbreviates: curve of first compound, second compound 0.1 µM.
[2] abbreviates: curve of first compound, second compound 0.316 µM.
The mark [3] stands for this setting: curve of first compound, second compound 1 µM.
The mark [4] stands for this setting: curve of first compound, second compound 3.16 µM.
The mark [5] stands for this setting: curve of first compound, second compound 10 µM.
The mark [6] stands for this setting: second compound 0.1 µM, first compound 0.00949 µM.
Setting [7] is: second compound 0.1 µM, first compound 0.03 µM.
Setting [8] is: second compound 0.1 µM, first compound 0.0949 µM.
The mark [9] stands for this setting: second compound 0.1 µM, first compound 0.3 µM.
[10] abbreviates: second compound 0.316 µM, first compound 0.00949 µM.
Where [11] appears, read: second compound 0.316 µM, first compound 0.03 µM.
Setting [12] is: second compound 0.316 µM, first compound 0.0949 µM.
Setting [13] is: second compound 0.316 µM, first compound 0.3 µM.
The mark [14] stands for this setting: second compound 1 µM, first compound 0.00949 µM.
Where [15] appears, read: second compound 1 µM, first compound 0.03 µM.
[16] abbreviates: second compound 1 µM, first compound 0.0949 µM.
Setting [17] is: second compound 1 µM, first compound 0.3 µM.
[18] abbreviates: second compound 3.16 µM, first compound 0.00949 µM.
The mark [19] stands for this setting: second compound 3.16 µM, first compound 0.03 µM.
[20] abbreviates: second compound 3.16 µM, first compound 0.0949 µM.
The mark [21] stands for this setting: second compound 3.16 µM, first compound 0.3 µM.
Where [22] appears, read: second compound 10 µM, first compound 0.00949 µM.
Setting [23] is: second compound 10 µM, first compound 0.03 µM.
Setting [24] is: second compound 10 µM, first compound 0.0949 µM.
Setting [25] is: second compound 10 µM, first compound 0.3 µM.

The structures appear in SMILES notation. Several values for one entry are separate records, joined by “and”; a condition that tells them apart may be missing. Identical values can stand only once.

In general, IC50 refers to the concentration at which inhibition is half-maximal. The term viability, T/C denotes the ratio of treated to control. As for `CCN(c1cc(-c2ccc(CN3CCOCC3)cc2)cc(C(=O)NCc2c(C)cc(C)[nH]c2=O)c1C)C1CCOCC1` + CC(CO)NC(=O)c1cc(-c2ccc(Cl)cc2)nn(-c2cnn(C)c2)c1=O, the 50% inhibitory concentration (IC50) runs as follows: under setting [1], over 3000 nM; under setting [2], over 3000 nM; under setting [3], over 3000 nM; under setting [4], over 3000 nM; under setting [5], over 3000 nM. In addition, the viability, T/C under setting [6] is 90.2%; the viability, T/C under setting [7] was 101%; the viability, T/C under setting [8] was 93.5%; the viability, T/C under setting [9] is 106%; the viability, T/C (second compound 0.1 µM, first compound 0.949 µM) is 98.7%; the viability, T/C (second compound 0.1 µM, first compound 3 µM) was 102%. In addition, the viability, T/C is, setting by setting: under setting [10], 108%; under setting [11], 107%; under setting [12], 103%; under setting [13], 101%; (second compound 0.316 µM, first compound 0.949 µM) 103%; (second compound 0.316 µM, first compound 3 µM) 98.4%. The viability, T/C is, setting by setting: under setting [14], 98.8%; under setting [15], 102%; under setting [16], 101%; under setting [17], 109%; (second compound 1 µM, first compound 0.949 µM) 110%; (second compound 1 µM, first compound 3 µM) 96.6%. Moreover, the viability, T/C was 101% under setting [18]; 97.5% under setting [19]; 106% under setting [20]; 102% under setting [21]; 112% (second compound 3.16 µM, first compound 0.949 µM); 98.5% (second compound 3.16 µM, first compound 3 µM). Besides, the viability, T/C under setting [22] was 105%; the viability, T/C under setting [23] is 110%; the viability, T/C under setting [24] was 102%; the viability, T/C under setting [25] is 116%; the viability, T/C (second compound 10 µM, first compound 0.949 µM) is 116%; the viability, T/C (second compound 10 µM, first compound 3 µM) was 106%.

As to `CC(C)c1c(-c2ccccc2)nc2c(C#N)c[nH]n2c1=O`, the viability, T/C runs as follows: (compound 0.0316 µM) 101% and 108% and 93.8%; (compound 0.1 µM) 106% and 99.9% and 109%; (compound 0.316 µM) 101% and 103% and 108%; (compound 1 µM) 105% and 101% and 100%; (compound 3.16 µM) 97.5% and 110% and 105%; (compound 10 µM) 99% and 98% and 97.1%. For the same molecule, the IC50 (curve of compound) is over 10000 nM.

For `CC(C)CC(NC(=O)C(Cc1ccccc1)NC(=O)c1cnccn1)B(O)O` (centres undefined) + Cc1ccccc1N=Nc1ccc(NC(=O)c2ccnn2C)c(C)c1, the IC50 runs as follows: under setting [1], 18.3 nM; under setting [2], 17.9 nM; under setting [3], 17.4 nM; under setting [4], 17.6 nM; under setting [5], 17.2 nM. Further, the viability, T/C by setting is: (second compound 0.1 µM, first compound 0.000949 µM) 96.9%; (second compound 0.1 µM, first compound 0.003 µM) 103%; under setting [6], 103%; under setting [7], 11.9%; under setting [8], 0.85%; under setting [9], 0.51%. For the same molecule, the viability, T/C was 103% (second compound 0.316 µM, first compound 0.000949 µM); 110% (second compound 0.316 µM, first compound 0.003 µM); 98.6% under setting [10]; 10.4% under setting [11]; 4.46% under setting [12]; 0.43% under setting [13]. Moreover, the viability, T/C (second compound 1 µM, first compound 0.000949 µM) was 106%; the viability, T/C (second compound 1 µM, first compound 0.003 µM) was 107%; the viability, T/C under setting [14] is 92.4%; the viability, T/C under setting [15] was 11.7%; the viability, T/C under setting [16] was 0.98%; the viability, T/C under setting [17] was 2%. The viability, T/C (second compound 3.16 µM, first compound 0.000949 µM) was 98.9%; the viability, T/C (second compound 3.16 µM, first compound 0.003 µM) is 96.1%; the viability, T/C under setting [18] was 104%; the viability, T/C under setting [19] was 7.1%; the viability, T/C under setting [20] was 0.92%; the viability, T/C under setting [21] was 0.45%. For the same molecule, the viability, T/C is, setting by setting: (second compound 10 µM, first compound 0.000949 µM) 104%; (second compound 10 µM, first compound 0.003 µM) 106%; under setting [22], 80.3%; under setting [23], 21.8%; under setting [24], 1.78%; under setting [25], 1.25%.

For the molecule `O=C(C=Cc1cccc(S(=O)(=O)Nc2ccccc2)c1)NO`, the viability, T/C by setting is: (compound 0.0316 µM) 104% and 102% and 97.4%; (compound 0.1 µM) 101% and 99.7% and 102%; (compound 0.316 µM) 101% and 103% and 102%; (compound 1 µM) 101% and 102% and 112%; (compound 3.16 µM) 75.2% and 93.4% and 85.6%; (compound 10 µM) 16.8% and 22.8% and 12.4%. Besides, the half-maximal inhibitory concentration (IC50) (curve of compound) was 5200 nM and 6410 nM and 5530 nM.

For `CC1COCCN1c1cc(-c2ccnn2C)c2ccnc(-c3ccn[nH]3)c2n1` (centres undefined) + CC(CO)NC(=O)c1cc(-c2ccc(Cl)cc2)nn(-c2cnn(C)c2)c1=O, the IC50 by setting is: under setting [1], 134 nM; under setting [2], 109 nM; under setting [3], 98.3 nM; under setting [4], 79.4 nM; under setting [5], 51.1 nM. Moreover, the viability, T/C runs as follows: (second compound 0.1 µM, first compound 0.00316 µM) 100%; (second compound 0.1 µM, first compound 0.01 µM) 100%; (second compound 0.1 µM, first compound 0.0316 µM) 106%; (second compound 0.1 µM, first compound 0.1 µM) 63.5%; (second compound 0.1 µM, first compound 0.316 µM) 11.1%; (second compound 0.1 µM, first compound 1 µM) 3.76%. Further, the viability, T/C was 112% (second compound 0.316 µM, first compound 0.00316 µM); 103% (second compound 0.316 µM, first compound 0.01 µM); 105% (second compound 0.316 µM, first compound 0.0316 µM); 53.3% (second compound 0.316 µM, first compound 0.1 µM); 7.31% (second compound 0.316 µM, first compound 0.316 µM); 3.22% (second compound 0.316 µM, first compound 1 µM). Besides, the viability, T/C was 97.6% (second compound 1 µM, first compound 0.00316 µM); 110% (second compound 1 µM, first compound 0.01 µM); 104% (second compound 1 µM, first compound 0.0316 µM); 49% (second compound 1 µM, first compound 0.1 µM); 8.48% (second compound 1 µM, first compound 0.316 µM); 3.85% (second compound 1 µM, first compound 1 µM). Further, the viability, T/C (second compound 3.16 µM, first compound 0.00316 µM) is 112%; the viability, T/C (second compound 3.16 µM, first compound 0.01 µM) was 114%; the viability, T/C (second compound 3.16 µM, first compound 0.0316 µM) is 103%; the viability, T/C (second compound 3.16 µM, first compound 0.1 µM) is 36.7%; the viability, T/C (second compound 3.16 µM, first compound 0.316 µM) was 6.89%; the viability, T/C (second compound 3.16 µM, first compound 1 µM) was 3.57%. Further, the viability, T/C is 116% (second compound 10 µM, first compound 0.00316 µM); 109% (second compound 10 µM, first compound 0.01 µM); 78.5% (second compound 10 µM, first compound 0.0316 µM); 10.1% (second compound 10 µM, first compound 0.1 µM); 2.89% (second compound 10 µM, first compound 0.316 µM); 2.73% (second compound 10 µM, first compound 1 µM).

Values taken from PubChem BioAssay AID1919003 (Molecular Pharmacology Branch, DTP, NCI, 2023).
